Each structure is given as a SMILES string. Like-named read-outs stand apart in the source and are kept apart here.

The text below walks through data of paper PMC8306904, “Discovery of New Hits as Antitrypanosomal Agents by In Silico and In Vitro Assays Using Neolignan-Inspired Natural Products from Nectandra leucantha” (Molecules, 2021).

The test system of data set [1] is amastigote forms of T. cruzi. In words: Activity against amastigote forms of T. cruzi in infected macrophages. The settings on record: for SI: selectivity index (ratio CC50/IC50): CC50 against NCTC cells/IC50 against amastigotes. It counts as cell-based, Trypanosoma cruzi. How it is done: To perform the experiments, peritoneal macrophages from BALB/c mice were infected with trypomastigotes forms of T. cruzi. The macrophages obtained from the peritoneal cavity of BALB/c mice were seeded on a 16-well chamber slide (NUNC plate, Merck; 1 × 10^5/well) and incubated for 24 h at 37 °C in a 5% CO2-humidified incubator. The trypomastigotes LLC-MK2 were counted and used to infect the macrophages (parasite:macrophage ratio = 10:1). After 2 h incubation at 37 °C in a 5% CO2-humidified incubator, free parasites were removed by 1× washing with the medium. […] Benznidazole was used as the standard drug. At the end of the assay, slides were fixed with MeOH, stained with Giemsa, and counted using light microscopy. The IC50 values were calculated as previously reported.

The nature of data set [2]: Cytotoxicity against mammalian cells (MTT). The following applies: mouse, NCTC clone L929 cells (murine conjunctive cells). In kind it is cell-based. How it is done:
The optical density was determined using FilterMax F5 (Molecular Devices) at 570 nm. We calculated the selectivity index (SI) values using the following equation: CC50 against NCTC cells/IC50 against amastigotes.

Data set [3] deals with NCTC cells-clone L929. More on the design: method as in PMID 28864277, PMID 31103897, PMID 33047947. The settings on record: read-out: CC50, 50% cytotoxic concentration in NCTC cells (ATCC, clone 929); compounds 9–33 and 36–50; ref [8],[10],[26]; cited from earlier work.
Data set [4] deals with amastigote forms of T. cruzi. More on the design: method as in PMID 28864277, PMID 31103897, PMID 33047947. The settings on record: read-out: IC50, 50% inhibitory concentration against amastigote forms of T. cruzi; intracellular amastigotes; compounds 9–33 and 36–50; ref [8],[10],[26]; cited from earlier work.
Where [5] appears, read: Trypanosoma cruzi, Macrophage, -log IC50 against amastigotes, Table 1 and Figure 7, read-out: pIC50 Experimental (converted).
The mark [6] stands for this setting: Trypanosoma cruzi, Peritoneal macrophage, in Mus musculus, 48 h, read-out: IC50, 50% inhibitory concentration against amastigote forms of T. cruzi, intracellular amastigotes in BALB/c peritoneal macrophages, 48 h, 30 to […].
Where [7] appears, read: Trypanosoma cruzi, Macrophage, Table S2, -log IC50, supplement numbering, read-out: pIC50 (converted).

Regarding `O=C(Cn1ccnc1[N+](=O)[O-])NCc1ccccc1` [Bzd, benznidazole, reference compound], the “SI: selectivity index (ratio CC50/IC50)” value in data set [1] is given as 34.5. Further, the IC50 in data set [1] (setting [5]) is 5.5 µM; in data set [1] (setting [6]), 5.5 ± 1.4 µM. The same compound gave a CC50 at 48 h in data set [2] of 190 ± 13.5 µM.

Take `C=CCc1ccc(Oc2cc([C@@H](O)C=C)cc(OC)c2O)c(OC)c1` [Compound 3, 1-[(7S)-hydroxy-8-propenyl]-3-[3′-methoxy-1′-(8′-propenyl)-phenoxy]-4-hydroxy-5-methoxybenzene]: the IC50 in data set [1] (setting [5]) and in data set [1] (setting [6]) was over 30 µM in each case. In addition, the CC50 at 48 h in data set [2] is over 200 µM.

For `C=CCc1ccc(Oc2cc([C@@H](O)C=C)cc(OC)c2OC)c(OC)c1` [Compound 4, 1-[(7S)-hydroxy-8-propenyl]-3-[3′-methoxy-1′-(8′-propenyl)-phenoxy]-4,5-dimethoxybenzene], the “SI: selectivity index (ratio CC50/IC50)” value in data set [1] is listed as over 14.0. In addition, the IC50 is 14.5 µM in data set [1] (setting [5]), 7.94 µM in data set [1] (setting [7]) and 14.3 ± 1.9 µM in data set [1] (setting [6]). This compound also gave a CC50 at 48 h in data set [2] of over 200 µM.

`C=CCc1ccc(Oc2cc(C(=O)C=C)cc(OC)c2O)c(OC)c1` [Compound 5, 4-hydroxy-5-methoxy-3-[3′-methoxy-1′-(8′-propenyl)phenoxy]-1-(7-oxo-8-propenyl)benzene]: the IC50 in data set [1] (setting [5]) is over 30 µM; in data set [1] (setting [7]), 10 µM; in data set [1] (setting [6]) it was over 30 µM. For the same compound, the CC50 at 48 h in data set [2] was over 200 µM.

As to `C=CCc1ccc(Oc2cc(C(=O)C=C)cc(OC)c2OC)c(OC)c1` [Compound 6, 4,5-dimethoxy-3-[3′-methoxy-1′-(8′-propenyl)phenoxy]-1-(7-oxo-8-propenyl)benzene], in data set [1], the “SI: selectivity index (ratio CC50/IC50)” value is over 7.6. Besides, the values for the IC50 in data set [1] (setting [5]), in data set [1] (setting [7]) and in data set [1] (setting [6]) were 26.3 µM, 30.2 µM and 26.3 ± 1.3 µM, respectively. Moreover, in data set [2], the CC50 at 48 h is over 200 µM.

In the case of `C=CCc1ccc(Oc2cc(C(=O)C=C)cc(OC)c2OC(C)=O)c(OC)c1` [Compound 7, 4-Acetoxy-5-methoxy-3-[3′-methoxy-1′-(8′-propenyl)phenoxy]-1-(7-oxo-8-propenyl)benzene], the “pIC50 Experimental” value in data set [1] (-log IC50 against amastigotes, Table 1 and Figure 7) is recorded as 5.38. Also, the “SI: selectivity index (ratio CC50/IC50)” value in data set [1] was over 47.6. Also, the IC50 in data set [1] (setting [5]) is 4.27 µM; in data set [1] (Trypanosoma cruzi, Macrophage, Table S1, test set, supplement numbering, read-out: Exp. pIC50 (converted)) it was 9.55 µM; in data set [1] (setting [6]) it was 4.3 µM; in data set [1] (read-out: IC50, 50% inhibitory concentration against amastigote forms of T. cruzi, intracellular amastigotes in BALB/c peritoneal macrophages, 48 h, 30 to […]), 4.2 ± 1.1 µM. For the same compound, in data set [2], the CC50 at 48 h was over 200 µM.

On to `C=CCc1ccc(Oc2cc(CC=C)cc(OC)c2OCCCCC)c(OC)c1` [Compound 8], for which the IC50 in data set [1] (setting [5]) and in data set [1] (setting [6]) was over 30 µM throughout. This compound showed a CC50 at 48 h in data set [2] of over 200 µM.

For `CCCOc1c(OC)cc(CCC)cc1Oc1ccc(CCC)cc1OC` [Compound 18], the CC50 in data set [3] was over 200 µM. For the same compound, the IC50 was over 30 µM in data set [1] (setting [5]), 87.1 µM in data set [1] (setting [7]) and over 30 µM in data set [4].

Regarding `CCCc1ccc(Oc2cc(CCC)cc(OC)c2OC)c(OC)c1` [Compound 22], the CC50 in data set [3] is over 200 µM. For the same compound, the IC50 in data set [1] (setting [5]) and in data set [4] was over 30 µM throughout.

In the case of `COc1cc(CC2CO2)ccc1Oc1cc(CC2CO2)cc(OC)c1OC` (stereo not drawn) [Compound 25], the CC50 in data set [3] is over 200 µM. In addition, the IC50 in data set [1] (setting [5]) and in data set [4] was over 30 µM throughout.

For `COc1cc(CC(C)O)ccc1Oc1cc(CC(C)O)cc(OC)c1OC` (stereo not drawn) [Compound 31], in data set [3], the CC50 was over 200 µM. Also, in data set [1], the “SI: selectivity index (ratio CC50/IC50)” value is given as over 15.0. In addition, the IC50 in data set [1] (setting [5]) was 13.2 µM; in data set [1] (setting [7]), 28.2 µM; in data set [4], 13.3 ± 3.6 µM.

As for `C=CCc1cc(OC)cc(Oc2cc(CC=C)cc(OC)c2OS(=O)(=O)C(F)(F)F)c1` [Compound 33], the CC50 in data set [3] is over 200 µM. In addition, the IC50 is over 30 µM in data set [1] (setting [5]), 4.27 µM in data set [1] (setting [7]) and over 30 µM in data set [4].

On to `C=CCc1cc(OC)cc(Oc2ccc(CC=C)cc2OC)c1` [Compound 34], for which, in data set [1], the “SI: selectivity index (ratio CC50/IC50)” value was over 34.5. For the same compound, the IC50 was 5.75 µM in data set [1] (setting [5]) and 5.8 ± 0.7 µM in data set [1] (setting [6]). In addition, in data set [2], the CC50 at 48 h is over 200 µM.

As for `CCCc1cc(OC)cc(Oc2ccc(CCC)cc2OC)c1` [Compound 35], the “SI: selectivity index (ratio CC50/IC50)” value in data set [1] is listed as over 18.3. Further, the values for the IC50 in data set [1] (setting [5]) and in data set [1] (setting [6]) were 11 µM and 10.9 ± 6.5 µM, respectively. For the same compound, the CC50 at 48 h in data set [2] was over 200 µM.

Turning to `C=CCc1ccc(Oc2cc(CCC)cc(OC)c2O)c(OC)c1` [Compound 37], the CC50 in data set [3] is 14.2 ± 0.1 µM. In data set [1], the “SI: selectivity index (ratio CC50/IC50)” value came out at 1.4. Besides, the values for the IC50 in data set [1] (setting [5]) and in data set [4] were 10.5 µM and 10.5 ± 8.3 µM, respectively.

Consider `C=CCc1cc(OC)c(OC)c(Oc2ccc(CCC)cc2OC)c1` [Compound 38], for which the CC50 in data set [3] is over 200 µM. In addition, the “SI: selectivity index (ratio CC50/IC50)” value in data set [1] is over 17.1. Further, the IC50 in data set [1] (setting [5]) was 11.7 µM; in data set [4] it was 11.7 ± 7 µM.

On to `C=CCc1cc(OC)c(OCc2ccc(OC)cc2)c(Oc2ccc(CCC)cc2OC)c1` [Compound 40], for which the CC50 in data set [3] was over 200 µM. The “SI: selectivity index (ratio CC50/IC50)” value in data set [1] is recorded as over 23.3. In addition, the IC50 in data set [1] (setting [5]) was 8.51 µM; in data set [4] it was 8.6 ± 2.1 µM.

On to `C=CCc1ccc(Oc2cc(CCC)cc(OC)c2OCc2ccc(OC)cc2)c(OC)c1` [Compound 41], for which, in data set [3], the CC50 was over 200 µM. In data set [1], the “SI: selectivity index (ratio CC50/IC50)” value is over 14.9. In addition, the IC50 in data set [1] (setting [5]) was 13.5 µM; in data set [4], 13.4 ± 5.4 µM.

As to `C=CCc1ccc(Oc2cccc(OC)c2OC)c(OC)c1` [Compound 42], the CC50 in data set [3] was over 200 µM. For the same compound, the “SI: selectivity index (ratio CC50/IC50)” value in data set [1] is listed as over 7.8. The results for the IC50 in data set [1] (setting [5]) and in data set [4] were 25.7 µM and 25.7 ± 12.2 µM, respectively.

With `C=CCc1ccc(Oc2cc(CC=C)cc(OC)c2O)cc1` [Compound 45], the CC50 in data set [3] was 123 ± 9.8 µM. For the same compound, in data set [1], the “SI: selectivity index (ratio CC50/IC50)” value is 5.5. For the same compound, the values for the IC50 in data set [1] (setting [5]) and in data set [4] were 22.4 µM and 22.5 ± 18.8 µM, respectively.

Take `C=CCc1ccc(Oc2cc(CC=C)cc(OC)c2OCc2ccc(OC)cc2)cc1` [Compound 46]: in data set [3], the CC50 is over 200 µM. Also, the “SI: selectivity index (ratio CC50/IC50)” value in data set [1] is over 18.2. Besides, the IC50 in data set [1] (setting [5]) is 11.5 µM; in data set [1] (setting [7]), 11 µM; in data set [4] it was 11 ± 2.3 µM.

For `C=CCc1cc(OC)c(OC)c(Oc2ccccc2OC)c1` [Compound 47], the CC50 in data set [3] is over 200 µM. Moreover, the IC50 in data set [1] (setting [5]) and in data set [4] was over 30 µM each time.

On to `C=CCc1cc(OC)c(OCc2ccc(OC)cc2)c(Oc2ccccc2OC)c1` [Compound 48], for which, in data set [3], the CC50 was over 200 µM. Besides, the IC50 in data set [1] (setting [5]) and in data set [4] was over 30 µM throughout.

Turning to `C=CCOc1c(OC)cccc1Oc1ccc(CC=C)cc1OC` [Compound 49], in data set [3], the CC50 was over 200 µM. For the same compound, the IC50 in data set [1] (setting [5]) and in data set [4] was over 30 µM each time.
